Measurements reported in US20240101540A1, “TARGETED PROTEIN DEGRADATION OF PARP14 FOR USE IN THERAPY” (Ribon Therapeutics, Inc., priority 2022, published 2024).
Structures can show the parent of a compound that is named as a salt. Where two headings read alike, the source gives them in different places.

Target: T1, catalytic domain of human PARP14 (residues 1611 to 1801) with NanoLuc tag (Homo sapiens, UniProt Q460N5)
T1 construct: expressed in transfected cells; host or cells: HEK-293T cells (ATCC), pcDNA3.1(-) vector
T1 sequence (Q460N5 1611-1801): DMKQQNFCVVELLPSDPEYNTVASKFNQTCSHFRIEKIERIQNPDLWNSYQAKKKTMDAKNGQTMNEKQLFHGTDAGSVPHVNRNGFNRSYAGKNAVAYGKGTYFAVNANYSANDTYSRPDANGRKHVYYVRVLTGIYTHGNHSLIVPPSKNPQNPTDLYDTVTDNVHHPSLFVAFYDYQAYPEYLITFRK
Experiment: NanoLuc assay for the degradation of PARP14 (NanoLuc-tagged PARP14 overexpressed in HEK-293T cells, 2 hours)
Type: cell-based
Settings: Assay A (Example A): NanoLuc-tagged PARP14 degradation in HEK-293T cells
Protocol: The insert also contained a NanoLuc tag on the N terminus of the PARP14 protein.
Degradation of PARP14 protein was assessed using measurement of the NanoLuc tag as proxy for the PARP14 protein. […] Plasmid DNA was diluted in empty vector DNA then added to 1.163 mL of phenol red free OptiMEM (Thermo Fisher). Plasmid DNA concentrations used in each assay described in Table 1. The plasmid DNA was mixed with 78.5 μL of Fugene HD (Promega) and allowed to incubate 5 minutes.
The transfection was incubated for 24 hrs at 37 degrees in an incubator supplemented with 5% CO2. The cells were then trypsinized and brought up in phenol red free OptiMEM media. […] 40 nL of a dose response curve diluted in DMSO of each test compound was added to the cell plate using a Mosquito (TTP Labtech) and the plate was incubated at 37° C. for 2 hours. Assay plate was brought to room temperature then 20 μL per well of NanoGlo (Promega) was added to the plate. Luminescence was measured on an Envision (Perkin Elmer).
The average DMSO was calculated from 32 wells containing 0.1% DMSO only in columns 12 and 24 of the assay plate. The % of DMSO values were calculated as described below: […]
The % of DMSO values were plotted as a function of compound concentration and the following 4-parameter fit was applied to derive the DC50 values:
where top, bottom, and Hill Coefficient are allowed to float. Y is the % of DMSO and X is the compound concentration
DC50 data for the Example compounds is provided below in Table 2 (“+” is <0.1 μM; “++” is ≥0.1 μM and <1 μM; and “+++” is ≥1 μM).

Row | DC50 (read-out: DC50) [nM] | Compound | DC50 [nM]
1 | < 100 | O=C1CCC(N2Cc3cc(N4CCN(CCN5CCC(COc6cc(F)c7c(=O)[nH]c(CSC8CCOCC8)nc7c6)CC5)CC4)ccc3C2=O)C(=O)N1 (stereo not drawn) [Example 59, 3-(5-(4-(2-(4-(((5-fluoro-4-oxo-2-(((tetrahydro-2H-pyran-4-yl)thio)methyl)-3,4-dihydroquinazolin-7-yl)oxy)methyl)piperidin-1-yl)ethyl)piperazin-1-yl)-1-oxoisoindolin-2-yl)piperidine-2,6-dione] | 
2 | < 100 | O=C1CCC(N2C(=O)c3ccc(NC(=O)CN4CCC(COc5cc(F)c6c(=O)[nH]c(CSC7CCOCC7)nc6c5)CC4)cc3C2=O)C(=O)N1 (stereo not drawn) [Example 25, N-(2-(2,6-dioxopiperidin-3-yl)-1,3-dioxoisoindolin-5-yl)-2-(4-(((5-fluoro-4-oxo-2-(((tetrahydro-2H-pyran-4-yl)thio)methyl)-3,4-dihydroquinazolin-7-yl)oxy)methyl)piperidin-1-yl)acetamide] | 
3 | < 100 | O=C1CCC(c2ccc(NCC#CCN3CCC(COc4cc(F)c5c(=O)[nH]c(CSC6CCOCC6)nc5c4)CC3)cc2)C(=O)N1 (stereo not drawn) [Example 45, 3-(4-((4-(4-(((5-fluoro-4-oxo-2-(((tetrahydro-2H-pyran-4-yl)thio)methyl)-3,4-dihydroquinazolin-7-yl)oxy)methyl)piperidin-1-yl)but-2-yn-1-yl)amino)phenyl)piperidine-2,6-dione] | 
4 | < 100 | O=C1CCC(N2Cc3c(C#CCN4CCC(COc5cc(F)c6c(=O)[nH]c(CSC7CCOCC7)nc6c5)CC4)cccc3C2=O)C(=O)N1 (stereo not drawn) [Example 30, 3-(4-(3-(4-(((5-fluoro-4-oxo-2-(((tetrahydro-2H-pyran-4-yl)thio)methyl)-3,4-dihydroquinazolin-7-yl)oxy)methyl)piperidin-1-yl)prop-1-yn-1-yl)-1-oxoisoindolin-2-yl)piperidine-2,6-dione] | 
5 | < 100 | O=C1CCN(c2ccc(N3CCN(CCN4CCC(COc5cc(F)c6c(=O)[nH]c(CSC7CCOCC7)nc6c5)CC4)CC3)cc2)C(=O)N1 [Example 70, 1-(4-(4-(2-(4-(((5-fluoro-4-oxo-2-(((tetrahydro-2H-pyran-4-yl)thio)methyl)-3,4-dihydroquinazolin-7-yl)oxy)methyl)piperidin-1-yl)ethyl)piperazin-1-yl)phenyl)dihydropyrimidine-2,4(1H,3H)-dione] | 
6 | < 100 | Cn1c(=O)n(C2CCC(=O)NC2=O)c2cccc(C#CCN3CCC(COc4cc(F)c5c(=O)[nH]c(CSC6CCOCC6)nc5c4)CC3)c21 (stereo not drawn) [Example 31, 3-(4-(3-(4-(((5-fluoro-4-oxo-2-(((tetrahydro-2H-pyran-4-yl)thio)methyl)-3,4-dihydroquinazolin-7-yl)oxy)methyl)piperidin-1-yl)prop-1-yn-1-yl)-3-methyl-2-oxo-2,3-dihydro-1H-benzo[d]imidazol-1-yl)piperidine-2,6-dione] | 
7 | < 100 | O=C1CCC(Nc2ccc(N3CCN(CCN4CCC(COc5cc(F)c6c(=O)[nH]c(CC7CCCC7)nc6c5)CC4)CC3)cc2)C(=O)N1 (stereo not drawn) [Example 96, 3-((4-(4-(2-(4-(((2-(cyclopentylmethyl)-5-fluoro-4-oxo-3,4-dihydroquinazolin-7-yl)oxy)methyl)piperidin-1-yl)ethyl)piperazin-1-yl)phenyl)amino)piperidine-2,6-dione] | 
8 | < 100 | O=C1CCN(c2ccc(C#CCN3CCC(COc4cc(F)c5c(=O)[nH]c(CSC6CCOCC6)nc5c4)CC3)cc2)C(=O)N1 [Example 32, 1-(4-(3-(4-(((5-fluoro-4-oxo-2-(((tetrahydro-2H-pyran-4-yl)thio)methyl)-3,4-dihydroquinazolin-7-yl)oxy)methyl)piperidin-1-yl)prop-1-yn-1-yl)phenyl)dihydropyrimidine-2,4(1H,3H)-dione] | 
9 | < 100 | O=C1CCC(Nc2cccc(N3CCN(CCN4CCC(COc5cc(F)c6c(=O)[nH]c(CSC7CCOCC7)nc6c5)CC4)CC3)c2)C(=O)N1 (stereo not drawn) [Example 63, 3-((3-(4-(2-(4-(((5-fluoro-4-oxo-2-(((tetrahydro-2H-pyran-4-yl)thio)methyl)-3,4-dihydroquinazolin-7-yl)oxy)methyl)piperidin-1-yl)ethyl)piperazin-1-yl)phenyl)amino)piperidine-2,6-dione] | 
10 | < 100 | O=C1CCC(N2C(=O)c3ccc(N4CC(N5CCC(COc6cc(F)c7c(=O)[nH]c(CSC8CCOCC8)nc7c6)C(F)(F)C5)C4)cc3C2=O)C(=O)N1 (stereo not drawn) [Example 42, 5-(3-(3,3-difluoro-4-(((5-fluoro-4-oxo-2-(((tetrahydro-2H-pyran-4-yl)thio)methyl)-3,4-dihydroquinazolin-7-yl)oxy)methyl)piperidin-1-yl)azetidin-1-yl)-2-(2,6-dioxopiperidin-3-yl)isoindoline-1,3-dione] | 

Further lines, the compound ahead of its results:

Row | Compound | DC50 (read-out: DC50) [nM] | DC50 [nM]
11 | O=C1CCC(Nc2ccc(N3CC4CC(C3)N4CCN3CCC(COc4cc(F)c5c(=O)[nH]c(CSC6CCOCC6)nc5c4)CC3)cc2)C(=O)N1 (stereo not drawn) [Example 73, 3-((4-(6-(2-(4-(((5-fluoro-4-oxo-2-(((tetrahydro-2H-pyran-4-yl)thio)methyl)-3,4-dihydroquinazolin-7-yl)oxy)methyl)piperidin-1-yl)ethyl)-3,6-diazabicyclo[3.1.1]heptan-3-yl)phenyl)amino)piperidine-2,6-dione] | < 100 | 
12 | O=C1CCC(N2C(=O)c3cccc(N4CCC(COc5cc(F)c6c(=O)[nH]c(CSC7CCOCC7)nc6c5)CC4)c3C2=O)C(=O)N1 (stereo not drawn) [Example 24, 2-(2,6-dioxopiperidin-3-yl)-4-(4-(((5-fluoro-4-oxo-2-(((tetrahydro-2H-pyran-4-yl)thio)methyl)-3,4-dihydroquinazolin-7-yl)oxy)methyl)piperidin-1-yl)isoindoline-1,3-dione] | < 100 | 
13 | O=C1CCC(N2C(=O)c3cccc(NCCC(=O)N4CCC(COc5cc(F)c6c(=O)[nH]c(CSC7CCOCC7)nc6c5)CC4)c3C2=O)C(=O)N1 (stereo not drawn) [Example 5, 2-(2,6-dioxopiperidin-3-yl)-4-((3-(4-(((5-fluoro-4-oxo-2-(((tetrahydro-2H-pyran-4-yl)thio)methyl)-3,4-dihydroquinazolin-7-yl)oxy)methyl)piperidin-1-yl)-3-oxopropyl)amino)isoindoline-1,3-dione] | < 100 | 
14 | O=C1CCC(N2C(=O)c3ccc(N4CCN(CC5CCN(C(=O)CN6CCC(COc7cc(F)c8c(=O)[nH]c(CSC9CCOCC9)nc8c7)CC6)CC5)CC4)cc3C2=O)C(=O)N1 (stereo not drawn) [Example 15, 2-(2,6-dioxopiperidin-3-yl)-5-(4-((1-(2-(4-(((5-fluoro-4-oxo-2-(((tetrahydro-2H-pyran-4-yl)thio)methyl)-3,4-dihydroquinazolin-7-yl)oxy)methyl)piperidin-1-yl)acetyl)piperidin-4-yl)methyl)piperazin-1-yl)isoindoline-1,3-dione formate] | < 100 | 
15 | O=C1CCC(Nc2ccc(C(=O)N3CCC(COc4cc(F)c5c(=O)[nH]c(CSC6CCOCC6)nc5c4)CC3)cc2)C(=O)N1 (stereo not drawn) [Example 16, 3-((4-(4-(((5-fluoro-4-oxo-2-(((tetrahydro-2H-pyran-4-yl)thio)methyl)-3,4-dihydroquinazolin-7-yl)oxy)methyl)piperidine-1-carbonyl)phenyl)amino)piperidine-2,6-dione] | < 100 | 
16 | O=C1CCC(N2C(=O)c3cccc(OC4CC(CN5CCC(COc6cc(F)c7c(=O)[nH]c(CSC8CCOCC8)nc7c6)CC5)C4)c3C2=O)C(=O)N1 (single isomer, unassigned) [Example 80b, 2-(2,6-dioxopiperidin-3-yl)-4-((1s,3s)-3-((4-(((5-fluoro-4-oxo-2-(((tetrahydro-2H-pyran-4-yl)thio)methyl)-3,4-dihydroquinazolin-7-yl)oxy)methyl)piperidin-1-yl)methyl)cyclobutoxy)isoindoline-1,3-dione] | < 100 | 
17 | O=C1CCC(Nc2ccc(N3CCN(CCN4CCC(COc5cc(F)c6c(=O)[nH]c(CCC7CCOCC7)nc6c5)CC4)CC3)cc2)C(=O)N1 (stereo not drawn) [Example 82, 3-((4-(4-(2-(4-(((5-fluoro-4-oxo-2-(2-(tetrahydro-2H-pyran-4-yl)ethyl)-3,4-dihydroquinazolin-7-yl)oxy)methyl)piperidin-1-yl)ethyl)piperazin-1-yl)phenyl)amino)piperidine-2,6-dione] |  | < 100
18 | O=C1CCC(N2C(=O)c3cccc(NCCOCC(=O)N4CCC(COc5cc(F)c6c(=O)[nH]c(CSC7CCOCC7)nc6c5)CC4)c3C2=O)C(=O)N1 (stereo not drawn) [Example 22, 2-(2,6-dioxopiperidin-3-yl)-4-((2-(2-(4-(((5-fluoro-4-oxo-2-(((tetrahydro-2H-pyran-4-yl)thio)methyl)-3,4-dihydroquinazolin-7-yl)oxy)methyl)piperidin-1-yl)-2-oxoethoxy)ethyl)amino)isoindoline-1,3-dione] | < 100 | 
